# What was measured:
# [1] = system: IGROV-1; experiment: Inhibition of cells growth by colorimetric assay (SRB), IGROV-1; assay type: cell-based; settings: for GI50 / CC50: Homo sapiens, IGROV-1, 48 h; for GI50 / IGROV TGI: SRB assay, 48 hours exposure; for GI50: read-out: IGROV GI50; for CC50: read-out: IGROV LC50, SRB assay, 48 hours exposure
# Summary of the method: (§1)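 48 h SRB cytotoxicity assay; compound range 10–10^−8 μg/ml; seeding 5×10^3 cells/well, 18 h pre-attachment; OD 490 nm; GI, TGI, LC from triplicate means ± SD.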
# [2] = system: IGROV-ET; experiment: Inhibition of cells growth by colorimetric assay (SRB), IGROV-ET; assay type: cell-based; settings: for GI50 / CC50: Homo sapiens, 48 h; for GI50 / IGROV-ET TGI: SRB assay, 48 hours exposure; for GI50: read-out: IGROV-ET GI50; for CC50: read-out: IGROV-ET LC50, SRB assay, 48 hours exposure
# Summary of the method: as §1
# [3] = system: SK-MEL-28; experiment: Inhibition of cells growth by colorimetric assay (SRB), SK-MEL-28; assay type: cell-based; settings: for GI50 / CC50: Homo sapiens, SK-MEL-28, 48 h; for GI50 / MEL-28 TGI: SRB assay, 48 hours exposure; for GI50: read-out: MEL-28 GI50; for CC50: read-out: MEL-28 LC50, SRB assay, 48 hours exposure
# Summary of the method: as §1
# [4] = system: Heart
# Text: (§2) Toxicity was asssessed by the methods reported in Toxicology in Vitro, 15 (2001) 571-577, J. Luber Narod et al.: “Evaluation of the use of in vitro methodolodies as tools for screening new compounds for potential in vivo toxicity”.
# [5] = system: LoVo-Dox; experiment: Inhibition of cells growth by colorimetric assay (SRB), LoVo-Dox; assay type: cell-based; settings: for GI50 / CC50: Homo sapiens, 48 h; for GI50 / LOVO-DOX TGI: SRB assay, 48 hours exposure; for GI50: read-out: LOVO-DOX GI50; for CC50: read-out: LOVO-DOX LC50, SRB assay, 48 hours exposure
# Summary of the method: as §1
# [6] = system: SK-BR-3; experiment: Inhibition of cells growth by colorimetric assay (SRB), SK-BR-3; assay type: cell-based; settings: for GI50 / CC50: Homo sapiens, SK-BR-3, 48 h; for GI50 / SK-BR3 TGI: SRB assay, 48 hours exposure; for GI50: read-out: SK-BR3 GI50; for CC50: read-out: SK-BR3 LC50, SRB assay, 48 hours exposure
# Summary of the method: as §1
# [7] = system: PANC-1; experiment: Inhibition of cells growth by colorimetric assay (SRB), PANC-1; assay type: cell-based; settings: for GI50 / LC50 (concentration for 50% net cell kill): Homo sapiens, PANC-1, 48 h; for GI50 / PANC-1 TGI: SRB assay, 48 hours exposure; for GI50: read-out: PANC-1 GI50; for LC50 (concentration for 50% net cell kill): read-out: PANC-1 LC50, SRB assay, 48 hours exposure
# Summary of the method: as §1
# [8] = system: Kidney
# Text: as §2
# [9] = system: Myelo
# Text: as §2
# [10] = system: HMEC1; experiment: Inhibition of cells growth by colorimetric assay (SRB), HMEC1; assay type: cell-based; settings: for GI50 / LC50: Homo sapiens, HMEC-1, 48 h; for GI50 / HMEC-1 TGI: SRB assay, 48 hours exposure; for GI50: read-out: HMEC-1 GI50; for LC50: read-out: HMEC-1 LC50, SRB assay, 48 hours exposure
# Summary of the method: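 Compound in DMSO/EtOH/PBS vehicle was applied at 10 to 10^−8 μg/ml to attached cells (5×10^3/well, 18 h) for 48 h. Cells were then fixed with cold TCA and stained with 0.4% SRB in 1% acetic acid.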
# [11] = system: K-562; experiment: Inhibition of cells growth by colorimetric assay (SRB), K-562; assay type: cell-based; settings: for GI50 / LC50 (50% cell killing): Homo sapiens, K562, 48 h; for GI50 / K-562 TGI: SRB assay, 48 hours exposure; for GI50: read-out: K-562 GI50; for LC50 (50% cell killing): read-out: K-562 LC50, SRB assay, 48 hours exposure
# Summary of the method: as §1
# [12] = system: SK-OV-3; experiment: Inhibition of cells growth by colorimetric assay (SRB), SK-OV-3; assay type: cell-based; settings: for GI50 / LC50: Homo sapiens, SK-OV-3, 48 h; for GI50 / SK-OV3 TGI: SRB assay, 48 hours exposure; for GI50: read-out: SK-OV3 GI50; for LC50: read-out: SK-OV3 LC50, SRB assay, 48 hours exposure
# Summary of the method: as §1
# [13] = system: Skeletal
# Text: as §2
# [14] = system: LoVo; experiment: Inhibition of cells growth by colorimetric assay (SRB), LoVo; assay type: cell-based; settings: for GI50 / LC50 (concentration for 50% cell killing): Homo sapiens, LoVo, 48 h; for GI50 / LOVO TGI: SRB assay, 48 hours exposure; for GI50: read-out: LOVO GI50; for LC50 (concentration for 50% cell killing): read-out: LOVO LC50, SRB assay, 48 hours exposure
# Summary of the method: as §1
# [15] = system: A-549; experiment: Inhibition of cells growth by colorimetric assay (SRB), A-549; assay type: cell-based; settings: for GI50 / LC50 (concentration for 50% cell killing): Homo sapiens, A549, 48 h; for GI50 / A-549 TGI: SRB assay, 48 hours exposure; for GI50: read-out: A-549 GI50; for LC50 (concentration for 50% cell killing): read-out: A-549 LC50, SRB assay, 48 hours exposure
# Summary of the method: as §1
# [16] = system: DU-145; experiment: Inhibition of cells growth by colorimetric assay (SRB), DU-145; assay type: cell-based; settings: for GI50 / CC50: Homo sapiens, DU-145, 48 h; for GI50 / DU-145 TGI: SRB assay, 48 hours exposure; for GI50: read-out: DU-145 GI50; for CC50: read-out: DU-145 LC50, SRB assay, 48 hours exposure
# Summary of the method: as §1
# [17] = system: LNCaP; experiment: Inhibition of cells growth by colorimetric assay (SRB), LNCaP; assay type: cell-based; settings: for GI50 / CC50: Homo sapiens, LNCaP, 48 h; for GI50: read-out: LNCAP GI50, SRB assay, 48 hours exposure; for CC50: read-out: LNCAP LC50, SRB assay, 48 hours exposure; for LNCAP TGI: SRB assay, 48 hours exposure
# Summary of the method: as §1
# [18] = system: Liver
# Text: as §2
# [19] = system: HT-29; experiment: Inhibition of cells growth by colorimetric assay (SRB), HT-29; assay type: cell-based; settings: for GI50 / LC50 (concentration for 50% cell killing): Homo sapiens, HT-29, 48 h; for GI50 / HT-29 TGI: SRB assay, 48 hours exposure; for GI50: read-out: HT-29 GI50; for LC50 (concentration for 50% cell killing): read-out: HT-29 LC50, SRB assay, 48 hours exposure
# Summary of the method: as §1
structure (smiles),measurement,setting,value
COc1cc2c(cc1OC(=O)OC(C)(C)C)CCN[C@]21CS[C@@H]2c3c(OC(=O)[C@H](C)NC(=O)OC(C)(C)C)c(C)c4c(c3[C@H](COC1=O)N1C2[C@H]2c3c(cc(C)c(OC)c3O)C[C@@H]([C@@H]1O)N2C)OCO4 (stereo partly shown) [Compound 175],GI50,[1],0.641 nM
same,CC50,[1],8.13 nM
same,IGROV TGI,[1],2.37E-09
same,GI50,[2],3.97 nM
same,CC50,[2],1720 nM
same,IGROV-ET TGI,[2],9.56E-09
same,GI50,[3],3.28 nM
same,CC50,[3],25.2 nM
same,MEL-28 TGI,[3],6.63E-09
same,Toxicity Data Heart,[4],2.82E-09
same,GI50,[5],43.3 nM
same,CC50,[5],10100 nM
same,LOVO-DOX TGI,[5],1.55E-07
same,GI50,[6],1.31 nM
same,CC50,[6],13.2 nM
same,SK-BR3 TGI,[6],3.78E-09
same,GI50,[7],4.38 nM
same,LC50 (concentration for 50% net cell kill),[7],10100 nM
same,PANC-1 TGI,[7],1.33E-08
same,Toxicity Data Kidney,[8],2.84E-09
same,Toxicity Data Myelo,[9],1.59E-08
same,GI50,[10],3.54 nM
same,LC50,[10],10100 nM
same,HMEC-1 TGI,[10],1.29E-08
same,GI50,[11],0.293 nM
same,LC50 (50% cell killing),[11],0.775 nM
same,K-562 TGI,[11],4.76E-10
same,GI50,[12],3.56 nM
same,LC50,[12],10100 nM
same,SK-OV3 TGI,[12],8.77E-09
same,Toxicity Data Skeletal,[13],2.12E-07
same,GI50,[14],2.3 nM
same,LC50 (concentration for 50% cell killing),[14],8.33 nM
same,LOVO TGI,[14],4.38E-09
same,GI50,[15],2.25 nM
same,LC50 (concentration for 50% cell killing),[15],7.97 nM
same,A-549 TGI,[15],4.24E-09
same,GI50,[16],3.67 nM
same,CC50,[16],10100 nM
same,DU-145 TGI,[16],9.20E-09
same,GI50,[17],0.382 nM
same,CC50,[17],3.64 nM
same,LNCAP TGI,[17],1.12E-09
same,Toxicity Data Liver,[18],3.87E-09
same,GI50,[19],4.15 nM
same,LC50 (concentration for 50% cell killing),[19],10100 nM
same,HT-29 TGI,[19],1.54E-08
C=COC(=O)Oc1c(C)c2c(c3c1[C@H]1SC[C@]4(NCCc5cc(OC(=O)OC(C)(C)C)c(OC)cc54)C(=O)OC[C@@H]3N3C1[C@H]1c4c(cc(C)c(OC)c4O)C[C@@H]([C@@H]3O)N1C)OCO2 (stereo partly shown) [Compound 176],GI50,[1],1.74 nM
same,CC50,[1],10.7 nM
same,IGROV TGI,[1],4.30E-09
same,GI50,[2],4.88 nM
same,CC50,[2],3450 nM
same,IGROV-ET TGI,[2],3.38E-08
same,GI50,[3],25.8 nM
same,CC50,[3],95.6 nM
same,MEL-28 TGI,[3],4.97E-08
same,Toxicity Data Heart,[4],1.98E-08
same,GI50,[5],47.3 nM
same,CC50,[5],11200 nM
same,LOVO-DOX TGI,[5],1.15E-06
same,GI50,[6],2.7 nM
same,CC50,[6],40.6 nM
same,SK-BR3 TGI,[6],7.73E-09
same,GI50,[7],5.31 nM
same,LC50 (concentration for 50% net cell kill),[7],3200 nM
same,PANC-1 TGI,[7],1.97E-08
same,Toxicity Data Kidney,[8],2.80E-09
same,Toxicity Data Myelo,[9],1.42E-08
same,GI50,[10],3.46 nM
same,LC50,[10],11200 nM
same,HMEC-1 TGI,[10],1.48E-07
same,GI50,[11],0.737 nM
same,LC50 (50% cell killing),[11],6.89 nM
same,K-562 TGI,[11],1.52E-09
same,GI50,[12],3.26 nM
same,LC50,[12],11 nM
same,SK-OV3 TGI,[12],8.07E-09
same,Toxicity Data Skeletal,[13],2.41E-08
same,GI50,[14],11.1 nM
same,LC50 (concentration for 50% cell killing),[14],112 nM
same,LOVO TGI,[14],5.12E-08
same,GI50,[15],2.75 nM
same,LC50 (concentration for 50% cell killing),[15],11.2 nM
same,A-549 TGI,[15],6.01E-09
same,GI50,[16],5.24 nM
same,CC50,[16],8360 nM
same,DU-145 TGI,[16],1.10E-08
same,GI50,[17],1.62 nM
same,CC50,[17],6.49 nM
same,LNCAP TGI,[17],3.25E-09
same,Toxicity Data Liver,[18],2.95E-08
same,GI50,[19],3.83 nM
same,LC50 (concentration for 50% cell killing),[19],11200 nM
same,HT-29 TGI,[19],7.96E-09

# Source: patent US7759345B2, “Antitumoral derivatives of ET-743” (priority 2001, dated 2010)
